Assay results: patent US20160250213A1, “FORMULATIONS OF AZAINDOLE COMPOUNDS” (priority 2013, published 2016)
Read-outs that look alike come from different tables or passages of the source. Marks after values point to notes of the source that are not given here.

Key:
A/Puerto Rico/8/34 = assay type: cell-based, influenza A virus
influenza A virus = assay type: in vivo, mice
influenza A = tested on: influenza A; parameters: species or system mice; settings: mouse, in vivo
[1] = tested on: Influenza A/Victoria/3/75 (H3N2) virus; assay type: in vivo, BALB/c mice; settings: 10 mg/kg p.o. twice a day for 10 days starting 2 hours prior to virus exposure
[2] = tested on: Influenza A/California/04/2009 (pndH1N1) virus; assay type: in vivo, BALB/c mice; settings: 10 mg/kg p.o. twice a day for 10 days starting 2 hours prior to virus exposure
[3] = ambient temperature

CC(=O)N[C@H]1[C@H]([C@H](O)[C@H](O)CO)OC(C(=O)O)=C[C@@H]1N=C(N)N [Zanamivir]
0.64: C.I. (combination index) values at the 50% effect level (A/Puerto Rico/8/34)
268: Synergy Volume, 95% Confidence (A/Puerto Rico/8/34)

CCC(CC)O[C@@H]1C=C(C(=O)O)C[C@H](N)[C@H]1NC(C)=O [oseltamivir carboxylate]
312: Synergy Volume, 95% Confidence (A/Puerto Rico/8/34; Bliss Independence (Macsynergy), in combination with Compound (1))

CCOC(=O)C1=C[C@@H](OC(CC)CC)[C@H](NC(C)=O)[C@@H](N)C1 [Oseltamivir, reference compound]
0.58: C.I. (combination index) values at the 50% effect level (A/Puerto Rico/8/34)
1.0: Mean Lung Parameters (Day 6): Score (hemorrhage, 0 to 4) [2]
9/10***: Survivors/Total [1]
survived: survival (influenza A virus; 10 mg/kg BID, same experiment (prophylactic)) | survival (influenza A virus; mouse, in vivo)
−0.15 Log10: Log10 Reduction vs. Vehicle (influenza A)
218 ± 24 mg: Mean Lung Parameters (Day 6): Weight [1]
178 mg: Mean Lung Parameters (Day 6): Weight [2]
≤ 24 h: dosing initiation post infection up to which complete protection is provided (influenza A virus; 10 mg/kg BID)
7.0: MDD ± SD (mean day of death of mice that died on or before day 21) [1]
1.7 ± 1.1: Mean Lung Parameters (Day 6): Score (hemorrhage, 0 to 4) [1]
7.0 ± 0.3 Log10 CCID50/g: Mean Lung Parameters (Day 6): Virus Titer [1]
6.05 Log10 TCID50: Lung Viral Titer (influenza A; 10 mg/kg)
10/10***: Survivors/Total [2]
7.9 Log10 CCID50/g: Mean Lung Parameters (Day 6): Virus Titer [2]

NC(=O)c1nc(F)c[nH]c1=O [favipiravir]
317: Synergy Volume, 95% Confidence (A/Puerto Rico/8/34)
0.89: C.I. (combination index) values at the 50% effect level (A/Puerto Rico/8/34)

O=C(O)[C@H]1C2CCC(CC2)C1Nc1nc(-c2c[nH]c3ncc(F)cc23)ncc1F (stereo partly drawn) [amorphous compound (1)]
No signal: Resulting Form ([3]; solvent 1-Propanol) | Resulting Form ([3]; solvent 2-Ethoxyethanol) | Resulting Form ([3]; solvent 2-Methoxyethanol) | Resulting Form ([3]; solvent Dimethylsulfoxide) | Resulting Form ([3]; solvent Formic acid) | Resulting Form ([3]; solvent N,N-Dimethylformamide) | Resulting Form ([3]; solvent N-Methylpyrrolidinone)
Amorphous: Resulting Form ([3]; solvent 1,1,2-Trichloroethane) | Resulting Form ([3]; solvent 1,2-Dichloroethane) | Resulting Form ([3]; solvent 1,2-Dimethoxyethane) | Resulting Form ([3]; solvent Acetonitrile) | Resulting Form ([3]; solvent Anisole) | Resulting Form ([3]; solvent Butyl acetate) | Resulting Form ([3]; solvent Chlorobenzene) | Resulting Form ([3]; solvent Chloroform) | Resulting Form ([3]; solvent Cumene) | Resulting Form ([3]; solvent Cyclohexane) | Resulting Form ([3]; solvent Dichloromethane) | Resulting Form ([3]; solvent Ethyl acetate) | Resulting Form ([3]; solvent Ethyl ether) | Resulting Form ([3]; solvent Formamide) | Resulting Form ([3]; solvent Hexane) | Resulting Form ([3]; solvent Isobutyl acetate) | Resulting Form ([3]; solvent Isopropyl acetate) | Resulting Form ([3]; solvent Methylbutyl ketone) | Resulting Form ([3]; solvent Methylcyclohexane) | Resulting Form ([3]; solvent Nitromethane) | Resulting Form ([3]; solvent Pentane) | Resulting Form ([3]; solvent Propyl acetate) | Resulting Form ([3]; solvent Tetralin) | Resulting Form ([3]; solvent Toluene) | Resulting Form ([3]; solvent Water) | Resulting Form ([3]; solvent t-Butylmethylether) | Resulting Form ([3]; solvent xylene)
Solvate (1:1): Resulting Form ([3]; solvent 1,4-Dioxane) | Resulting Form ([3]; solvent 1-Butanol)
Solvate: Resulting Form ([3]; solvent 3-Methyl-1-butanol) | Resulting Form ([3]; solvent Acetone) | Resulting Form ([3]; solvent Ethylene glycol) | Resulting Form ([3]; solvent Heptane) | Resulting Form ([3]; solvent Methanol) | Resulting Form ([3]; solvent Methyl acetate) | Resulting Form ([3]; solvent N,N-Dimethylacetamide) | Resulting Form ([3]; solvent acetic acid)
Solvate(1:1): Resulting Form ([3]; solvent 1-Pentanol) | Resulting Form ([3]; solvent 2-Butanol) | Resulting Form ([3]; solvent 2-Methy-1-propanol) | Resulting Form ([3]; solvent 2-Propanol) | Resulting Form ([3]; solvent Ethyl formate) | Resulting Form ([3]; solvent Methyl tetrahydrofuran) | Resulting Form ([3]; solvent Methylethyl ketone) | Resulting Form ([3]; solvent Tetrahydrofuran)
